Experimental data as given in patent US20080220445A1, “Method of Screening Transmembrane Enzyme Inhibitory Substance” (TAKEDA PHARMACEUTICAL COMPANY LIMITED, priority 2004, published 2008).

What was measured:
[1] = molecular target: T1, BACE1-471 (Homo sapiens, UniProt P56817); test: Inhibitory action on BACE1-471, fluorescence-quenched peptide substrate; format: biochemical; conditions: pH 5.5; final concentration: 10 μM; 37° C. for 50 hr; pH5.5; read-out: inhibition rates on BACE1-471
T1 construct: made in house; host or cells: FreeStyle 293-F cells (HEK293)
T1 sequence (P56817 with tags, fused parts or gaps): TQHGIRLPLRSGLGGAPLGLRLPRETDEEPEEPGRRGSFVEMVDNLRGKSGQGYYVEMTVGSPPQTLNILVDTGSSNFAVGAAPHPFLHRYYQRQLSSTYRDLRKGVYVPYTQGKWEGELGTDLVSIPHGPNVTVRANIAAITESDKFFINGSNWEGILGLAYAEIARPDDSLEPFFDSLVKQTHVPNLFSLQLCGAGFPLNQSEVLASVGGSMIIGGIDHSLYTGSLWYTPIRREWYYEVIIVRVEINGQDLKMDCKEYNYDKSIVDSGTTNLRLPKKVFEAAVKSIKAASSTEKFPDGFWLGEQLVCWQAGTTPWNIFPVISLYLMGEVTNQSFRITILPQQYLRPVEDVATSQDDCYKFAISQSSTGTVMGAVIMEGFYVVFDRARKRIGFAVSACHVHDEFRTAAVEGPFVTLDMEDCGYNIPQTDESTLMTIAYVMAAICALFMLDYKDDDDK
Procedure: (§1) To 96 black well plate, 25 μl of 0.05M acetate buffer (pH5.5), 10 μl of 250 μM substrate (Nma-Ser-Glu-Val-Lys-Met-Asp-Ala-Glu-Lys(Dnp)-Arg-Arg-NH2; SEQ ID NO: 11), 10 μl of BACE1-471 (0.05 mg/ml) or BACE1-465 (0.04 mg/ml) obtained from the above-mentioned Reference Example 7, and 5 μl of 0.1 mM Compound A in 10% DMSO solution, and as a control, 5 μl of 10% DMSO were added respectively, and allowed to be reacted at 37° C. for 50 hr for BACE1-471 and for 22 hr for BACE1-465. After completion of the reaction, the fluorescence intensity (excitation wavelength at 325 nm, measurement wavelength at 460 nm) was measured with Fluoroscan ASCENT.

[2] = molecular target: T2, BACE1-465 (Homo sapiens, UniProt P56817); test: Inhibitory action on BACE1-465, fluorescence-quenched peptide substrate; format: biochemical; conditions: final concentration: 10 μM; 37° C. for 22 hr; pH5.5
T2 construct: made in house; host or cells: FreeStyle 293-F cells (HEK293), culture supernatant
T2 sequence (P56817 with tags, fused parts or gaps): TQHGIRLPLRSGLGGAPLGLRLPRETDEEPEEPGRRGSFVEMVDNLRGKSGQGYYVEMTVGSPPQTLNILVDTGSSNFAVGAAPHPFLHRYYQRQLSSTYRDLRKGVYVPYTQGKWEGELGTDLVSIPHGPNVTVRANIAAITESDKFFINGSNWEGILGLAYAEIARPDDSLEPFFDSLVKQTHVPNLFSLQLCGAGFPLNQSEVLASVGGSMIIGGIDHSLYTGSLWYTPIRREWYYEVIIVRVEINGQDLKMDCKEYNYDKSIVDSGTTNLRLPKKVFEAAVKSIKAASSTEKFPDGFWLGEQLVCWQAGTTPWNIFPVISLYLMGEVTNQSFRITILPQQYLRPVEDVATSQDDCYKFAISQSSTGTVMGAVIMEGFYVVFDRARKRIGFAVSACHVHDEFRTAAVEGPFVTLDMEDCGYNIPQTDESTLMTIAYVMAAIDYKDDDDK
Procedure: as §1

[3] = molecular target: T3, recombinant human BACE-1 (amino acid residues 1-460, R & D Systems) (Homo sapiens, UniProt P56817); test: Inhibitory action on BACE protein, fluorescence-quenched peptide substrate; format: biochemical; conditions: final concentration: 10 μM; 37° C. for 63 hr; pH 5.5
T3 construct: a recombinant human BACE-1 (amino acid residues 1-460, R & D Systems); purchased R & D Systems
T3 sequence (P56817 22-460): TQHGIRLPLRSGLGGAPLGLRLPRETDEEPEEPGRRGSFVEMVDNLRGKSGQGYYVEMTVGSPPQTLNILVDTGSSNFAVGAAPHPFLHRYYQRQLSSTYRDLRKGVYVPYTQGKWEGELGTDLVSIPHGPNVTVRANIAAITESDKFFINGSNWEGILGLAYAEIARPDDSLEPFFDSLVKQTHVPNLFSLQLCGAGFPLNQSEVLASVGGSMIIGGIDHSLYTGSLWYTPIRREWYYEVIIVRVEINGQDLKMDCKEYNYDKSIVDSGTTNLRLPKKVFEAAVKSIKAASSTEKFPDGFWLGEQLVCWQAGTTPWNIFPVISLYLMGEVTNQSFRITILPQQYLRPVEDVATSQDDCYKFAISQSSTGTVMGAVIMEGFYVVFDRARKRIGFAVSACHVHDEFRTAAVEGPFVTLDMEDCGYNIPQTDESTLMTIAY
Procedure: (§2) To 96 black well plate, 25 μl of 0.05 M acetate buffer (pH 5.5), 10 μl of 250 μM substrate (Nma-Ser-Glu-Val-Lys-Met-Asp-Ala-Glu-Lys(Dnp)-Arg-Arg-NH2; SEQ ID NO: 11), 10 μl of BACE1-474 (0.02 mg/ml) or BACE1-454 (0.01 mg/ml) obtained from the above-mentioned Reference Example 5 or a recombinant human BACE-1 (amino acid residues 1-460, R & D Systems) (0.025 mg/ml) commercially available as an extracellular domain, and 5 μl of each compound in 10% DMSO solution, and as a control, 5 μl of 10% DMSO were added respectively, and allowed to be reacted at 37° C. for 63 hr. After completion of the reaction, the fluorescence intensity (excitation wavelength at 325 nm, measurement wavelength at 460 nm) was measured with Fluoroscan ASCENT.

[4] = molecular target: T4, BACE1-474 (extracellular domain and transmembrane domain of β-secretase) (Homo sapiens, UniProt P56817); test: as above; format: biochemical; conditions: final concentration: 10 μM; 37° C. for 63 hr; pH 5.5; read-out: inhibition rates on BACE1-474
T4 construct: made in house; host or cells: FreeStyle 293-F cells (HEK293)
T4 sequence (P56817 with tags, fused parts or gaps): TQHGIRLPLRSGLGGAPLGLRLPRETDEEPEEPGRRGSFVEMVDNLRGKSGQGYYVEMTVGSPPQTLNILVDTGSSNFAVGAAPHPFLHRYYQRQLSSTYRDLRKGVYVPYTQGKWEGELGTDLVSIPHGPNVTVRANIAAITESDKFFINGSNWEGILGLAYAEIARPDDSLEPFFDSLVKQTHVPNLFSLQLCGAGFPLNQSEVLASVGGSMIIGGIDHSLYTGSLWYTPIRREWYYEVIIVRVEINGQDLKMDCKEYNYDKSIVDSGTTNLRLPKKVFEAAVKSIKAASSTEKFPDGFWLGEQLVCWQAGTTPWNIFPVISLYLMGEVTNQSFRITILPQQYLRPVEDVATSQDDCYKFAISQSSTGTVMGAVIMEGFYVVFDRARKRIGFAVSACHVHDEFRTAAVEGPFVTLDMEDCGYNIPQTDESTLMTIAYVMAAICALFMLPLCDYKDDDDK
Procedure: as §2

[5] = molecular target: T5, BACE1-454 (extracellular domain of β-secretase) (Homo sapiens, UniProt P56817); test: as above; format: biochemical; conditions: final concentration: 10 μM; 37° C. for 63 hr; pH 5.5
T5 construct: made in house; host or cells: FreeStyle 293-F cells (HEK293), culture supernatant
T5 sequence (P56817 with tags, fused parts or gaps): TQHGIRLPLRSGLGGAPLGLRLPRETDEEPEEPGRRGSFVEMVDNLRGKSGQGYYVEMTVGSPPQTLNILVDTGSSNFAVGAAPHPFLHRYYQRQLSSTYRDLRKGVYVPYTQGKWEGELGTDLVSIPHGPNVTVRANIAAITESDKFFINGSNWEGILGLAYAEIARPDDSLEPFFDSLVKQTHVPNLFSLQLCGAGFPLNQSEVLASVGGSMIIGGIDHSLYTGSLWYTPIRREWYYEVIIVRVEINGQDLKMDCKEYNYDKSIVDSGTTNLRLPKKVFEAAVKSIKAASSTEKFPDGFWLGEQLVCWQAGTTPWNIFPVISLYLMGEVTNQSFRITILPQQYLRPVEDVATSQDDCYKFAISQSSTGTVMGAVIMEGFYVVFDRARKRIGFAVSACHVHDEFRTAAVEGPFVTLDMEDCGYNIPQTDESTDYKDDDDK
Procedure: as §2

[6] = molecular target: T6, BACE1-501 (Homo sapiens, UniProt P56817); test: Detection of binding by surface plasmon resonance (Biacore3000); conditions: PBS containing 10% DMSO and 0.005% Surfactant P20
T6 construct: Expression of full-length β-secretase protein (BACE1-501) was performed with FreeStyle 293 Expression System; made in house; host or cells: FreeStyle 293-F cells (HEK293)
T6 sequence (P56817 with tags, fused parts or gaps): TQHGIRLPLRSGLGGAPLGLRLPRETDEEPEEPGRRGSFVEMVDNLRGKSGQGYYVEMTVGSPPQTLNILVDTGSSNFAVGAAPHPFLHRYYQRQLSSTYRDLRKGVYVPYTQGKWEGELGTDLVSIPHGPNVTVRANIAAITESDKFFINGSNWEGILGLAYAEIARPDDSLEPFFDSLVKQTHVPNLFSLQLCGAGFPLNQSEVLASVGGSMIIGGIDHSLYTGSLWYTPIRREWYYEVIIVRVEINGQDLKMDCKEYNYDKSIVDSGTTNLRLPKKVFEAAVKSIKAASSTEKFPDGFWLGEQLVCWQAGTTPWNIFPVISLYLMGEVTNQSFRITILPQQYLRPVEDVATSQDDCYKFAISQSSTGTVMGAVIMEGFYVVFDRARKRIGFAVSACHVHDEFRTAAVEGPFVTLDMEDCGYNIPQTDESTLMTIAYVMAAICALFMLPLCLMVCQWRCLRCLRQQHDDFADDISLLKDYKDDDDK
From the text: Biacore3000 (Biacore) was used for analysis by surface plasmon resonance. BACE1-501 and the recombinant human BACE-1 (amino acid residue 1-460) were immobilized to carboxyl groups on CM5 sensorchip (carboxymethylated dextran matrix chip) activated with N-hydrosuccinimide (NHS)/N-ethyl-N′-(3-dimethyl-aminopropyl)-carbodiimide hydrochloride (EDC) in acetate buffer at pH 4.5. BACE1-454 and BACE1-474 were immobilized by the same way in acetate buffer at pH 4.0. The binding of the compound and the enzymes was measured in PBS containing 10% DMSO and 0.005% Surfactant P20. The correction of the difference of Resonance Unit (RU) value among flow cells resulting from the bulk effect was carried out with a correction curve made using the buffers with the DMSO concentration varied from 9% to 11% in the five-graded. As a result, signals showing the binding of each compound to BACE1-501 and BACE1-474 were observed. On the other hand, for BACE1-454 and the recombinant human BACE-1 (amino acid residue 1-460), no signal was observed showing the binding.

Row | Compound | inhibition at 10 µM [1] | inhibitory activity on BACE1-465 [2] | inhibitory activity on the recombinant human BACE-1 [3] | inhibition at 10 µM [4] | inhibitory activity on BACE1-454 [5] | SPR signal showing the binding to BACE1-501 [6]
1 | CN(C)CC[C@@H]1CCc2cc(OCc3ccc(-c4ccccc4)cc3)ccc2C1 [Compound A] | 29% | no inhibitory activity | no inhibitory activity | 30% | no inhibitory activity | 
2 | CCN(CC)CCC1CCc2cc(OCc3ccc(-c4ccccc4)cc3)ccc2C1 (centres unmarked) [Compound D] | 42% | no inhibitory activity | no inhibitory activity | 38% | no inhibitory activity | 
3 | C[N+](C)([O-])CC[C@@H]1CCc2cc(OCc3ccc(-c4ccccc4)cc3)ccc2C1 [Compound H] | 31% | no inhibitory activity | no inhibitory activity | 34% | no inhibitory activity | 
4 | NCCC1CCc2cc(OCc3ccc(-c4ccccc4)cc3)ccc2C1 (centres unmarked) [Compound I] | 70% | no inhibitory activity | no inhibitory activity | 37% | no inhibitory activity | 
5 | Cc1ccc(-c2ccc(COc3ccc4c(c3)CC[C@@H](CCN(C)C)C4)cc2)cc1 [Compound J] | 48% | no inhibitory activity | no inhibitory activity | 37% | no inhibitory activity | binding
